From US20060013780A1, “N,N'-dialkyl derivatives of polyhydroxyalkyl alkylenediamines” (priority 2004, published 2006)

Key:
[1] = Ross-Miles foam test (modified, ASTM D1173-53); assay type: physicochemical; conditions: surfactant in water; 0.01 wt % and 0.1 wt %, table does not say which
[2] = Cleaning performance, ASTM D4488-95, reflectance of white vinyl composition tile; conditions: 0.1% (wt %) surfactant
Excerpt: Although dynamic and equilibrium surface tension as well as foam influence the cleaning ability of a surfactant, other factors also affect cleaning performance. Thus one good way to determine the cleaning ability of a surfactant is to apply a soil to a substrate, clean that substrate with the surfactant of interest and some benchmark surfactants, and compare relative cleaning efficacies in terms of percent soil removal. One method for conducting such testing is described in ASTM D4488-95, “Standard Guide for Testing Cleaning Performance of Products Intended for Use on Resilient Flooring and Washable Walls.” This method was followed according to the particulate and oily soil/vinyl tiles test methodology, with cleaning performance being evaluated by reading average reflectance values (5 readings/tile) of a white vinyl composition tile before and after cleaning (Table 6). The higher the reflectance value the better the cleaning ability of the surfactant.
The cleaning performance of surfactants according to the invention was compared side by side with that of two benchmark surfactants, Neodol 23-6.5 (available from Shell Chemical of Houston, Tex.) and AG 6202 (available from Akzo Nobel of McCook, Ill.), an alcohol ethoxylate and an alkylpolyglucoside surfactant, respectively.

[3] = Equilibrium surface tension, Kruss K-12 tensiometer with platinum Wilhelmy plate; assay type: physicochemical; conditions: 25±1° C.; for EST (0.01 WT %, mN/m): 0.01 wt % in water; for EST (0.1 WT %, mN/m): 0.1 wt % in water; for EST (1.0 WT %, mN/m): 1.0 wt % in water
Description: Equilibrium surface tensions were determined using a Kruss K-12 tensiometer with a platinum Wilhelmy plate, maintaining the temperature at 25±1° C. by means of a constant temperature circulating bath.

[4] = Dynamic surface tension, maximum bubble pressure method; assay type: physicochemical; conditions: for DST (0.1 WT %, mN/m) 0.1 b/s / DST (0.1 WT %, mN/m) 10 b/s: 0.1 wt % in distilled and deionized water; for DST (0.1 WT %, mN/m) 0.1 b/s / DST (0.5 WT %, mN/m) 0.1 b/s: 0.1 bubbles/sec; for DST (0.1 WT %, mN/m) 10 b/s / DST (0.5 WT %, mN/m) 10 b/s: 10 bubbles/sec; for DST (0.5 WT %, mN/m) 0.1 b/s / DST (0.5 WT %, mN/m) 10 b/s: 0.5 wt % in distilled and deionized water
Description: Solutions in distilled and deionized water of the surfactants of the invention were prepared. […] In a practical sense, high surface creation rates refer to rapid processes such as a spray or roller-applied coating, a high speed printing operation, or the rapid application of an agricultural product or a cleaner.

[5] = Aqueous solubility comparison; conditions: in water
Description: Comparison of the aqueous solubilities of several N,N′-dialkyl-N,N′-bis(1-deoxyglucityl)ethylenediamines was performed, with the results as follows:
The ratios of compounds are on a molar basis.

Compound | Ross Miles Final Foam (cm) [1] | Ross Miles Initial Foam (cm) [1] | % SOIL REMOVAL [2] | EST (0.01 WT %, mN/m) [3] | EST (0.1 WT %, mN/m) [3] | EST (1.0 WT %, mN/m) [3] | DST (0.1 WT %, mN/m) 0.1 b/s [4] | DST (0.1 WT %, mN/m) 10 b/s [4] | DST (0.5 WT %, mN/m) 0.1 b/s [4] | DST (0.5 WT %, mN/m) 10 b/s [4] | dynamic surface tension reduction in words ([4]; Table 4 data, strong at low bubble rates) | aqueous solubility in words [5]
CCCCN(CCN(CCCC)C[C@H](O)[C@@H](O)[C@H](O)[C@H](O)CO)C[C@H](O)[C@@H](O)[C@H](O)[C@H](O)CO [DBDGEDA, N,N′-dibutyl-N,N′-bis(1-deoxyglucityl)-1,2-diaminoethane] | 0.5 cm | 1.8 cm | 45% | 62 mN/m | 50 mN/m | 47 mN/m | 63 mN/m | 67 mN/m | 56 mN/m | 47 mN/m | moderate to low | –
CCCCCCN(CCN(CCCCCC)C[C@H](O)[C@@H](O)[C@H](O)[C@H](O)CO)C[C@H](O)[C@@H](O)[C@H](O)[C@H](O)CO [DHDGEDA, N,N′-dihexyl-N,N′-bis(1-deoxyglucityl)-1,2-diaminoethane] | 1.5 cm | 3.6 cm | 67% | 57 mN/m | 33 mN/m | 30 mN/m | 37 mN/m | 51 mN/m | 30 mN/m | 32 mN/m | – | extreme insolubility
CCCCNC[C@H](O)[C@@H](O)[C@H](O)[C@H](O)CO [N-Butylglucamine] | 0.3 cm | 2.5 cm | – | – | – | ≧50 mN/m | 71 mN/m | 72 mN/m | 70 mN/m | 71 mN/m | – | –
CCCCCCNC[C@H](O)[C@@H](O)[C@H](O)[C@H](O)CO [N-Hexylglucamine] | 1.0 cm | 2.0 cm | – | 64 mN/m | 60 mN/m | 52 mN/m | 68 mN/m | 70 mN/m | 55 mN/m | 57 mN/m | – | –
CCCCCCCCNC[C@H](O)[C@@H](O)[C@H](O)[C@H](O)CO [N-Octylglucamine] | 0.3 cm | 2.0 cm | – | 55 mN/m | 35 mN/m | 35 mN/m | 54 mN/m | 65 mN/m | 48 mN/m | 62 mN/m | – | –
N,N′-dioctyl-N,N′-bis(1-deoxyglucityl)ethylenediamine [DODGEDA] | – | – | 48% | – | – | – | – | – | – | – | – | –
